Source: ChEMBL document CHEMBL4706519, “Evaluation of N-phenyl-2-aminothiazoles for treatment of multi-drug resistant and intracellular Staphylococcus aureus infections” (Eur J Med Chem, 2020)
In brackets after ≈: the same amount, converted by molar mass.

Key:
[1] = Cytotoxicity against mouse J774 cells assessed as cell viability at 16 ug/ml incubated for 2 hrs by MTS assay relative to control; format: cell-based; settings: at 16 µg/mL, read-out: Activity
[2] = test system: Staphylococcus aureus; assay: Antibacterial activity against methicillin-resistant Staphylococcus aureus USA400 NRS123 infected in mouse J774 cells assessed as log reduction in intracellular bacterial burden at 2 x MIC measured after 24 hrs; format: functional
[3] = Cytotoxicity against mouse J774 cells assessed as cell viability at 32 ug/ml incubated for 2 hrs by MTS assay; format: cell-based; settings: J774 cells, at 32 µg/mL, read-out: Activity
[4] = test system: Staphylococcus aureus; assay: microbe, parasite or virus in culture; settings: USA500 NRS385
[5] = test system: Listeria monocytogenes; assay: Antibacterial activity against Listeria monocytogenes ATCC 19111 assessed as inhibition of bacterial growth measured after 18 to 20 hrs by CLSI protocol based broth microdilution method; format: functional; settings: time 18-20 hrs
[6] = test system: Staphylococcus aureus; assay: microbe, parasite or virus in culture; settings: NRS119
[7] = test system: Enterococcus faecalis; assay: microbe, parasite or virus in culture; settings: ATCC 51299
[8] = test system: Enterococcus faecalis; assay: Ratio of MBC to MIC for vancomycin-resistant Enterococcus faecalis ATCC 51299 assessed as inhibition of bacterial growth measured after 18 to 20 hrs by CLSI protocol based broth microdilution method; format: functional; settings: time 18-20 hrs
[9] = test system: Streptococcus pneumoniae; assay: Antibacterial activity against methicillin-resistant Streptococcus pneumoniae ATCC 700677 assessed as inhibition of bacterial growth measured after 18 to 20 hrs by CLSI protocol based broth microdilution method; format: functional; settings: time 18-20 hrs
[10] = Selectivity index, ratio of maximum non-toxic concentration for human Caco-2 cells to MIC for methicillin-resistant Staphylococcus aureus USA300 NRS384; format: toxicity
[11] = test system: Listeria monocytogenes; assay: Ratio of MBC to MIC for Listeria monocytogenes ATCC 19111 assessed as inhibition of bacterial growth measured after 18 to 20 hrs by CLSI protocol based broth microdilution method; format: functional; settings: time 18-20 hrs
[12] = test system: Staphylococcus aureus; assay: Antibacterial activity against vancomycin-resistant Staphylococcus aureus 12 assessed as inhibition of bacterial growth measured after 18 to 20 hrs by CLSI protocol based broth microdilution method; format: functional; settings: time 18-20 hrs
[13] = test system: Staphylococcus aureus; assay: Ratio of MIC for methicillin-resistant Staphylococcus aureus USA400 NRS123 measured after 11th passage to MIC for methicillin-resistant Staphylococcus aureus USA400 NRS123 measured after 18 to 20 hrs by broth microdilution assay; format: functional
[14] = test system: Staphylococcus epidermidis; assay: Ratio of MBC to MIC for methicillin-resistant Staphylococcus epidermidis NRS101 assessed as inhibition of bacterial growth measured after 18 to 20 hrs by CLSI protocol based broth microdilution method; format: functional; settings: time 18-20 hrs
[15] = test system: Staphylococcus aureus; assay: Antibacterial activity against methicillin-resistant Staphylococcus aureus USA400 NRS123 infected in mouse J774 cells assessed as reduction in intracellular bacterial burden at 2 x MIC measured after 24 hrs relative to control; format: functional
[16] = test system: Enterococcus faecium; assay: Antibacterial activity against vancomycin-resistant Enterococcus faecium ATCC 700221 assessed as inhibition of bacterial growth measured after 18 to 20 hrs by CLSI protocol based broth microdilution method; format: functional; settings: time 18-20 hrs
[17] = test system: Staphylococcus aureus; assay: Antibacterial activity against methicillin-resistant Staphylococcus aureus USA400 NRS123 infected in mouse J774 cells assessed as reduction in intracellular bacterial burden at 4 x MIC measured after 24 hrs relative to control; format: functional
[18] = test system: Staphylococcus aureus; assay: Ratio of MIC for methicillin-resistant Staphylococcus aureus USA400 NRS123 measured after 5th passage to MIC for methicillin-resistant Staphylococcus aureus USA400 NRS123 measured after 18 to 20 hrs by broth microdilution assay; format: functional
[19] = test system: Staphylococcus aureus; assay: Ratio of MBC to MIC against methicillin-sensitive Staphylococcus aureus ATCC 6538 assessed as inhibition of bacterial growth measured after 18 to 20 hrs by CLSI broth microdilution method; format: functional; settings: time 18-20 hrs
[20] = test system: Streptococcus pneumoniae; assay: Ratio of MBC to MIC for methicillin-resistant Streptococcus pneumoniae ATCC 700677 assessed as inhibition of bacterial growth measured after 18 to 20 hrs by CLSI protocol based broth microdilution method; format: functional; settings: time 18-20 hrs
[21] = test system: Staphylococcus aureus; assay: Antibacterial activity against methicillin-resistant Staphylococcus aureus USA300 NRS384 assessed as inhibition of bacterial growth measured after 18 to 20 hrs by broth microdilution method; format: functional; settings: time 18-20 hrs
[22] = test system: Staphylococcus aureus; assay: microbe, parasite or virus in culture; settings: USA700 NRS386
[23] = Cytotoxicity against human Caco-2 cells assessed as cell viability at 32 ug/ml incubated for 2 hrs by MTS assay relative to control; format: cell-based; settings: at 32 µg/mL, read-out: Activity
[24] = test system: Staphylococcus aureus; assay: microbe, parasite or virus in culture; settings: USA400 NRS123
[25] = test system: Staphylococcus aureus; assay: Bactericidal activity against methicillin-resistant Staphylococcus aureus USA400 NRS123 assessed as eradication of bacterial count at 5 times MIC incubated for 8 hrs in soy broth followed by incubation for 18 to 20 hrs on agar plate by time kill assay; format: functional; settings: time 26-28 hrs
[26] = test system: Staphylococcus epidermidis; assay: Antibacterial activity against methicillin-resistant Staphylococcus epidermidis NRS101 assessed as inhibition of bacterial growth measured after 18 to 20 hrs by CLSI protocol based broth microdilution method; format: functional; settings: time 18-20 hrs
[27] = test system: Staphylococcus aureus; assay: Bactericidal activity against methicillin-resistant Staphylococcus aureus USA400 NRS123 assessed as log reduction in viable bacteria count at 5 times MIC incubated for 2 hrs in soy broth followed by incubation for 18 to 20 hrs on agar plate by time kill assay; format: functional; settings: time 20-22 hrs
[28] = test system: Staphylococcus aureus; assay: microbe, parasite or virus in culture; settings: ATCC 6538
[29] = test system: Streptococcus pneumoniae; assay: Antibacterial activity against cephalosporin-resistant Streptococcus pneumoniae ATCC 51916 assessed as inhibition of bacterial growth measured after 18 to 20 hrs by CLSI protocol based broth microdilution method; format: functional; settings: time 18-20 hrs
[30] = Selectivity index, ratio of maximum non-toxic concentration for human Caco-2 cells to MIC for methicillin-resistant Staphylococcus aureus USA700 NRS386; format: toxicity
[31] = Selectivity index, ratio of maximum non-toxic concentration for human Caco-2 cells to MIC for methicillin-resistant Staphylococcus aureus USA400 NRS123; format: toxicity
[32] = test system: Staphylococcus aureus; assay: microbe, parasite or virus in culture; settings: NRS107
[33] = Selectivity index, ratio of maximum non-toxic concentration for human Caco-2 cells to MIC for methicillin-resistant Staphylococcus aureus NRS119; format: toxicity
[34] = test system: Staphylococcus aureus; assay: Antibacterial activity against vancomycin-resistant Staphylococcus aureus 10 assessed as inhibition of bacterial growth measured after 18 to 20 hrs by CLSI protocol based broth microdilution method; format: functional; settings: time 18-20 hrs
[35] = test system: Escherichia coli; assay: Antibacterial activity against wild type Escherichia coli BW25113 assessed as inhibition of bacterial growth measured after 18 to 20 hrs by broth microdilution method; format: functional; settings: time 18-20 hrs
[36] = test system: Staphylococcus aureus; assay: Antibacterial activity against methicillin-resistant Staphylococcus aureus USA400 NRS123 infected in mouse J774 cells assessed as log reduction in intracellular bacterial burden at 4 x MIC measured after 24 hrs; format: functional
[37] = test system: Staphylococcus aureus; assay: Ratio of MBC to MIC against methicillin-sensitive Staphylococcus aureus NRS107 assessed as inhibition of bacterial growth measured after 18 to 20 hrs by CLSI protocol based broth microdilution method; format: functional; settings: time 18-20 hrs
[38] = test system: Streptococcus pneumoniae; assay: Ratio of MBC to MIC for cephalosporin-resistant Streptococcus pneumoniae ATCC 51916 assessed as inhibition of bacterial growth measured after 18 to 20 hrs by CLSI protocol based broth microdilution method; format: functional; settings: time 18-20 hrs
[39] = test system: Enterococcus faecium; assay: Ratio of MBC to MIC for vancomycin-resistant Enterococcus faecium ATCC 700221 assessed as inhibition of bacterial growth measured after 18 to 20 hrs by CLSI protocol based broth microdilution method; format: functional; settings: time 18-20 hrs
[40] = test system: Staphylococcus aureus; assay: Bactericidal activity against methicillin-resistant Staphylococcus aureus USA400 NRS123 assessed as post-antibiotic effect at 5 times MIC incubated for 2 hrs followed by compound wash-out by viable plate count method; format: functional
[41] = test system: Escherichia coli; assay: Antibacterial activity against Escherichia coli JW55031 harboring toIC efflux mutant assessed as inhibition of bacterial growth measured after 18 to 20 hrs by broth microdilution method; format: functional; settings: time 18-20 hrs
[42] = Selectivity index, ratio of maximum non-toxic concentration for human Caco-2 cells to MIC for methicillin-resistant Staphylococcus aureus USA500 NRS385; format: toxicity

**Q.** Which results are given for `C/C(=N\NC(=N)N)c1ccc(Nc2nc(-c3ccccc3)cs2)cc1`?
**A.** viability at 2 h, 16 ug/ml [1]: 100%; Activity [2]: 1.07 log10CFU/ml; viability at 2 h, 32 ug/ml [3]: 100%; MBC [4]: 2 mg/L (≈ 5.71 µM); MIC [4]: 2 mg/L (≈ 5.71 µM); MBC [5]: 4 mg/L (≈ 11.4 µM); MIC [5]: 1 mg/L (≈ 2.85 µM); MBC [6]: 4 mg/L (≈ 11.4 µM); MIC [6]: 2 mg/L (≈ 5.71 µM); MBC [7]: 4 mg/L (≈ 11.4 µM); MIC [7]: 2 mg/L (≈ 5.71 µM); Ratio [8]: 1; MBC [9]: 8 mg/L (≈ 22.8 µM); MIC [9]: 2 mg/L (≈ 5.71 µM); selectivity ratio [10]: 16; Ratio [11]: 1; MBC [12]: 4 mg/L (≈ 11.4 µM); MIC [12]: 2 mg/L (≈ 5.71 µM); Ratio [13]: 3; Ratio [14]: 1; inhibition (INH) [15]: 88%; MBC [16]: 4 mg/L (≈ 11.4 µM); MIC [16]: 2 mg/L (≈ 5.71 µM); inhibition (INH) [17]: 93%; Ratio [18]: 1; Ratio [19]: 1; Ratio [20]: 1; MIC [21]: 2 mg/L (≈ 5.71 µM); MBC [22]: 8 mg/L (≈ 22.8 µM); MIC [22]: 2 mg/L (≈ 5.71 µM); viability at 2 h, 32 ug/ml [23]: 100%; MBC [24]: 2 mg/L (≈ 5.71 µM); MIC [24]: 2 mg/L (≈ 5.71 µM); Activity [25]: 100%; MBC [26]: 1 mg/L (≈ 2.85 µM); MIC [26]: 1 mg/L (≈ 2.85 µM); Activity [27]: 3 log10CFU/ml; MBC [28]: 2 mg/L (≈ 5.71 µM); MIC [28]: 2 mg/L (≈ 5.71 µM); MBC [29]: 4 mg/L (≈ 11.4 µM); MIC [29]: 2 mg/L (≈ 5.71 µM); selectivity ratio [30]: 16; selectivity ratio [31]: 16; MBC [32]: 4 mg/L (≈ 11.4 µM); MIC [32]: 1 mg/L (≈ 2.85 µM); selectivity ratio [33]: 16; MBC [34]: 2 mg/L (≈ 5.71 µM); MIC [34]: 2 mg/L (≈ 5.71 µM); MIC [35]: 8 mg/L (≈ 22.8 µM); Activity [36]: 1.19 log10CFU/ml; Ratio [37]: 1; Ratio [38]: 1; Ratio [39]: 1; PAE [40]: 2 h; MIC [41]: 4 mg/L (≈ 11.4 µM); selectivity ratio [42]: 16
